Results taken from US20210214364A1, “sGC STIMULATORS” (Cyclerion Therapeutics, Inc., priority 2013, published 2021).
pEC50: −log10 of the molar value.

Molecular target: T1, soluble guanylate cyclase (sGC) endogenously expressed in HEK293 cells (Homo sapiens, UniProt Q02108+Q02153)
T1 construct: endogenously expressing soluble guanylate cyclase (sGC); endogenous in cells; host or cells: HEK293
T1 sequence (Q02153 1-619): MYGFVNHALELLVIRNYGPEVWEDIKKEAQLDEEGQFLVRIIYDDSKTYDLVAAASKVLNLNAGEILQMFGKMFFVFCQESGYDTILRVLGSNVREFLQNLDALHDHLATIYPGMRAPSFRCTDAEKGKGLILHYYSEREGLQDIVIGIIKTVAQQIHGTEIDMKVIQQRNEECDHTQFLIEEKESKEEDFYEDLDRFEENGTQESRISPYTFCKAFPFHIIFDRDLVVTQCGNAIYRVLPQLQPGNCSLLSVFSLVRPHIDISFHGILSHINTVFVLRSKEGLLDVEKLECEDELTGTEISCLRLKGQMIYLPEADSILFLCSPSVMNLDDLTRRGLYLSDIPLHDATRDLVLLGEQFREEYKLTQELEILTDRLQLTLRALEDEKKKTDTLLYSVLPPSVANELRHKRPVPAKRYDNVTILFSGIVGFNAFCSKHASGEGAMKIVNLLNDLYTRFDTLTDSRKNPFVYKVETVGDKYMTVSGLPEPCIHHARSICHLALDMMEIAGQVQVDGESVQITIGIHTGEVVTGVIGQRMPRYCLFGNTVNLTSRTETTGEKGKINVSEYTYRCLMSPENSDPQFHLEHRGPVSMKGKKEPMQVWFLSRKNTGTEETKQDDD
T1 sequence (Q02108 1-690): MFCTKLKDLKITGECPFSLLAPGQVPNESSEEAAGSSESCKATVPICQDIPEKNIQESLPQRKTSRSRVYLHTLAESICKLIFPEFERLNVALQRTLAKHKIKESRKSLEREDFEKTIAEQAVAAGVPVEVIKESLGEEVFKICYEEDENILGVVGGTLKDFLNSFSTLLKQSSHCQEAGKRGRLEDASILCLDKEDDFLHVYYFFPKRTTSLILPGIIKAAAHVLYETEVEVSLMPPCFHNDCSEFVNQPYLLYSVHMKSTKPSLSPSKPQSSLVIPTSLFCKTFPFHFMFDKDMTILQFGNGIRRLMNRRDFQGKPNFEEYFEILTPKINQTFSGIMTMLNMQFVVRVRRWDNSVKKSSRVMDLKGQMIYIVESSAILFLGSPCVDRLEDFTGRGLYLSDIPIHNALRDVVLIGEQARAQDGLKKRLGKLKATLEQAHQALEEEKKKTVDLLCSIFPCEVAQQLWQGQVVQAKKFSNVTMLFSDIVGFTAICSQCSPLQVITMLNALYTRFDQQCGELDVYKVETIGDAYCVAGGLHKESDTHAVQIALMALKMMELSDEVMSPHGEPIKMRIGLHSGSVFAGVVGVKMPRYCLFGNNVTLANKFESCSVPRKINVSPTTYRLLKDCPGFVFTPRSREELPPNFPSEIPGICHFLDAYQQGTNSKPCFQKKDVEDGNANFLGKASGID
Experiment: sGC-HEK-cGMP assay with LC/MS detection (whole cell)
Type: cell-based
Conditions: 10 μM DETA-NONOate, 20 min, concentration eliciting 50% of high control response (30 μM Compound Y), read-out: sGC_HEK_LC MS EC50 Abs
Procedure: Example 2: Biological Activity Measurement by the sGC-HEK-cGMP Assay, with LC/MS Detection
Human embryonic kidney cells (HEK293), endogenously expressing soluble guanylate cyclase (sGC), were used to evaluate the activity of test compounds. Compounds stimulating the sGC enzyme should cause an increase in the intracellular concentration of cGMP. HEK 293 cells were seeded in Dulbecco's Modification of Eagle's Medium supplemented with fetal bovine serum (10% final) and penicillin (100 U/mL)/streptomycin (100 μg/mL) in a 50 μL volume at a density of 1.5×10^4 cells/well in a poly-D-lysine coated 384 well flat bottom plate. Cells were incubated overnight at 37° C. in a humidified chamber with 5% CO2. Medium was aspirated and cells were washed with 1× Hank's Buffered Saline Salt Solution (50 μL). Cells were then incubated for 15 minutes at 37° C. with 50 μL of a 0.5 mM 3-isobutyl-1-methylxanthine (IBMX) solution. Test article and Diethylenetriamine NONOate (DETA-NONOate) solutions (x […] concentration for test article solution and 10 μM concentration for DETA-NONOate solution; wherein x is one of the following concentrations);
were then added to the assay mixture and the resulting mixture incubated at 37° C. for 20 minutes. After the 20 minute incubation, the assay mixture was aspirated and 10% acetic acid containing 150 ng/mL+3-cGMP (internal standard for LCMS) (50 μL) was added to the cells. The plate was incubated at 4° C. for 30 minutes in the acetic acid solution to stop the reaction and lyse the cells. The plates were then centrifuged at 1,000 g for 3 minutes at 4° C. and the supernatant transferred to a clean reaction plate for LCMS analysis.
cGMP concentrations were determined from each sample using the LCMS conditions below (Table 2) and calculated standard curve. The standard curve was prepared in 10% acetic acid with 150 ng/mL+3cGMP (isotopically labelled cGMP with a weight 3 units higher than wild type) with the following final concentrations of cGMP in ng/mL: 1, 5, 10, 50, 100, 250, 500, 1000, 2000.
Data were normalized to a high control using the following equation: 100*(Sample−Low Control)/(High Control−Low Control), where the low control is the average of 16 samples treated with 1% DMSO, and the high control is the average of 16 samples treated with 30 μM of Compound Y depicted below. Data were fit using a 4-parameter fit (log(agonist) vs. response variable slope) using GraphPad Prism Software v.5. n=2 for all compounds. The Absolute EC50 was interpolated from the curve fit and is defined as the concentration at which a given compound elicits 50% of the high control response. Compounds failing to elicit a minimum response of 50% are reported as >30 μM. For compounds run in duplicate or n higher than 2, the result herein given is the geometric mean of the several results obtained.

| Structure (SMILES) | pEC50 |
| --- | --- |
| COc1cc(-c2ncc(F)c(NCc3cc(=O)[nH]o3)n2)nn1Cc1ccccc1F [Compound I-19] | ≤ 6.00 |
| CCOC(=O)C1(C)C(=O)Nc2nc(-c3nc(OC)n(Cc4ccccc4F)n3)nc(N)c21 (centres unmarked) [Compound I-30] | ≤ 6.00 |
| COc1cc(-c2nnc3c(n2)NC(=O)C3(C)C)nn1Cc1ccccc1F [Compound I-16] | 6.00 to 7.00 |
| COc1cc(-c2ncc(F)c(NCCO)n2)nn1Cc1ccccc1F [Compound I-13] | ≤ 6.00 |
| COc1nc(-c2nc(N)c3c(n2)NC(=O)C3(C)C(N)=O)nn1Cc1ccccc1F (centres unmarked) [Compound I-17] | ≤ 6.00 |
| COc1cc(-c2ncc(F)c(N3CCOCC3)n2)nn1Cc1ccccc1F [Compound I-23] | ≤ 6.00 |
| COc1cc(-c2ncc(F)c(NCC(N)=O)n2)nn1Cc1ccccc1F [Compound I-11] | ≤ 6.00 |
| CCOC(=O)C1(C)C(=O)Nc2nc(-c3cc(OC(C)C)n(Cc4ccccc4F)n3)nc(N)c21 (centres unmarked) [Compound I-8] | ≤ 6.00 |
| COc1cc(-c2nc3c(c(=O)[nH]2)=C(C)C(=O)N=3)nn1Cc1ccccc1F [Compound I-15] | ≤ 6.00 |
| COc1cc(-c2ncc(F)c(N3CCNCC3)n2)nn1Cc1ccccc1F [Compound I-24] | ≤ 6.00 |
| COc1cc(-c2ncc(F)c(N(C)C)n2)nn1Cc1ccccc1F [Compound I-12] | ≤ 6.00 |
| COC(=O)NC1(C)C(=O)Nc2nc(-c3cc(OC)n(Cc4ccccc4F)n3)[nH]c(=O)c21 (centres unmarked) [Compound I-26] | ≤ 6.00 |
| Cn1c(-c2nc(N)c3c(n2)NC(=O)C3(C)C(=O)NC2CC2)nn(Cc2ccccc2F)c1=O (centres unmarked) [Compound I-38] | ≤ 6.00 |
| O=c1[nH]c(-c2cc(OC(F)F)n(Cc3ccccc3F)n2)ncc1F [Compound I-4] | ≤ 6.00 |
| CCOC(=O)C1(C)C(=O)Nc2nc(-c3cc(OC)n(CCC(F)(F)F)n3)nc(N)c21 (centres unmarked) [Compound I-14] | ≤ 6.00 |
| CC1(C(N)=O)C(=O)Nc2nc(-c3nn(Cc4ccccc4F)c(=O)[nH]3)nc(N)c21 (centres unmarked) [Compound I-10] | ≤ 6.00 |
| CCOC(=O)C1(C)C(=O)Nc2nc(-c3nn(Cc4ccccc4F)c(=O)n3C)nc(N)c21 (centres unmarked) [Compound I-29] | ≤ 6.00 |
| CCOC(=O)C1(C)C(=O)Nc2nc(-c3nn(Cc4ccccc4F)c(=O)[nH]3)nc(N)c21 (centres unmarked) [Compound I-21] | ≤ 6.00 |
| COc1cc(-c2nc(N)c3c(n2)NC(=O)C3(C)C(N)=O)nn1CCC(F)(F)F (centres unmarked) [Compound I-7] | ≤ 6.00 |
| COc1cc(-c2nccc(N)n2)nn1Cc1ccccc1F [Compound I-6] | ≤ 6.00 |
| COc1cc(-c2nc(N)c3c(n2)NC(=O)C3(C)C(N)=O)nn1Cc1ccccc1F (centres unmarked) [Compound I-2] | 6.00 to 7.00 |
| COc1cc(-c2ncc(F)c(NCC(=O)O)n2)nn1Cc1ccccc1F [Compound I-9] | ≤ 6.00 |

Second part, the compound after the results:

| pEC50 | Structure (SMILES) |
| --- | --- |
| ≤ 6.00 | CC1(C(N)=O)C(=O)Nc2nc(-c3cc(O)n(Cc4ccccc4F)n3)nc(N)c21 (centres unmarked) [Compound I-48] |
| ≤ 6.00 | Fc1cnc(-c2cc(OC(F)F)n(Cc3cccc(F)c3F)n2)nc1 [Compound I-59] |
| 6.00 to 7.00 | CCOC(=O)C1(C)C(=O)Nc2nc(-c3cc(OC(F)F)n(Cc4cccc(F)c4F)n3)nc(N)c21 (centres unmarked) [Compound I-52] |
| ≤ 6.00 | COc1cc(-c2ncc(F)c(N3CCNC(=O)C3)n2)nn1Cc1ccccc1F [Compound I-62] |
| ≤ 6.00 | COc1cc(-c2nc3c(c(=O)[nH]2)C(C)(C(=O)NC2CC2)C(=O)N3)nn1Cc1ccccc1F (centres unmarked) [Compound I-43] |
| ≤ 6.00 | CCOc1cc(-c2nc(N)c3c(n2)NC(=O)C3(C)C(N)=O)nn1Cc1ccccc1F (centres unmarked) [Compound I-28] |
| ≤ 6.00 | COc1c(C)c(-c2nc(N)c3c(n2)NC(=O)C3(C)C(N)=O)nn1Cc1ccccc1F (centres unmarked) [Compound I-27] |
| 6.00 to 7.00 | COc1cc(-c2ncc(F)c(N3CCC[C@H](C)[C@@H]3C(=O)O)n2)nn1Cc1ccccc1F [Compound I-70] |
| 6.00 to 7.00 | CC1(C)C(=O)Nc2nc(-c3cc(OC(F)F)n(Cc4cccc(F)c4F)n3)nc(N)c21 [Compound I-34] |
| 6.00 to 7.00 | CC1(C(=O)NC2CC2)C(=O)Nc2nc(-c3cc(OC(F)F)n(Cc4cccc(F)c4F)n3)ncc21 (centres unmarked) [Compound I-40] |
| ≤ 6.00 | COc1cc(-c2ncc(F)c(NCCS(N)(=O)=O)n2)nn1Cc1ccccc1F [Compound I-69] |
| 6.00 to 7.00 | CCOC(=O)C1(C)C(=O)Nc2nc(-c3cc(OCC)n(Cc4ccccc4F)n3)nc(N)c21 (centres unmarked) [Compound I-46] |
| 6.00 to 7.00 | C[C@H]1CCCN(c2nc(-c3cc(OC(F)F)n(Cc4ccccc4F)n3)ncc2F)[C@H]1C(=O)O [Compound I-42] |
| 6.00 to 7.00 | CCOC(=O)C1(C)C(=O)Nc2nc(-c3cc(OC(F)F)n(Cc4ccc(F)cc4F)n3)nc(N)c21 (centres unmarked) [Compound I-55] |
| 6.00 to 7.00 | COc1cc(-c2ncc(F)c(N(C)CC3(C(=O)O)CCCC3)n2)nn1Cc1ccccc1F [Compound I-66] |
| ≤ 6.00 | CCOC(=O)C1(C)C(=O)Nc2nc(-c3cc(OC(F)F)n(CCC(F)(F)C(F)(F)F)n3)nc(N)c21 (centres unmarked) [Compound I-57] |
| 6.00 to 7.00 | COc1cc(-c2ncc(F)c(N3CCC(C)(C(=O)O)CC3)n2)nn1Cc1ccccc1F [Compound I-68] |
| ≤ 6.00 | COc1cc(-c2ncc(NC(=O)OCc3ccccc3)c(=O)[nH]2)nn1Cc1ccccc1F [Compound I-47] |
| ≤ 6.00 | COc1cc(-c2ncc(F)c(N3CCC(S(N)(=O)=O)CC3)n2)nn1Cc1ccccc1F [Compound I-33] |
| 6.00 to 7.00 | CC1(C(N)=O)C(=O)Nc2nc(-c3cc(OC(F)F)n(Cc4ccccc4F)n3)nc(N)c21 (centres unmarked) [Compound I-71] |
| ≤ 6.00 | CC1(C(=O)NC2CC2)C(=O)Nc2nc(-c3cc(OC(F)F)n(CCC(F)(F)C(F)(F)F)n3)nc(N)c21 (centres unmarked) [Compound I-50] |
| ≤ 6.00 | COc1cc(-c2ncc(F)c(N3CC(C)C(C(=O)O)C3)n2)nn1Cc1ccccc1F (centres unmarked) [Compound I-36] |
| 6.00 to 7.00 | CC1(C(N)=O)C(=O)Nc2nc(-c3cc(OC(F)F)n(Cc4cccc(F)c4F)n3)nc(N)c21 (centres unmarked) [Compound I-53] |
| 6.00 to 7.00 | CC1(C(=O)NC2CC2)C(=O)Nc2nc(-c3cc(OC(F)F)n(Cc4cccc(F)c4F)n3)nc(N)c21 (centres unmarked) [Compound I-54] |
| 6.00 to 7.00 | CCOC(=O)C1(C)C(=O)Nc2nc(-c3nn(Cc4ccccc4F)c(OC)c3C)nc(N)c21 (centres unmarked) [Compound I-45] |
